According to patent publication US11161830B2, “4-pyridone compound or salt thereof, and pharmaceutical composition and formulation including same” (priority 2017, dated 2021):
Read-outs that look alike come from different tables or passages of the source.

Columns and labels:
HBV (genotype CAT) = experiment: Test Example 2-2: anti-HBV assay in PXB-cells (fresh human hepatocytes); assay type: cell-based; conditions: Hepatitis B virus, Hepatocyte
Description: Using fresh human hepatocytes (PXB-cells, manufactured by PhenixBio Co., Ltd.) collected from a PXB mouse (a chimeric mouse with human hepatocytes), the anti-HBV activity of the representative compounds was evaluated in the following procedure.
(§1) The following was used as a medium:
DMEM (manufactured by Sigma)+0.25 μg/mL insulin (manufactured by Wako)+1% penicillin/streptomycin. (manufactured by Sigma)+20 mmol/L HEPES (manufactured by Sigma)+15 μg/mL L-proline (manufactured by Sigma)+50 nmol/L dexamethasone (manufactured by Sigma)+5 ng/mL EGF (manufactured by Peprotech)+0.1 mmol/L ascorbic acid 2-phosphate (manufactured by Wako)+10% FBS+2% DMSO
Each of the test compounds) was further added to the medium to prepare a test solution containing each of the test compounds at various concentrations.
(1) PXB-cells seeded at a seeding density of 2.1×10^5 cells/cm^2 in a 96-well microliter plate were incubated in a 5% CO2 incubator at 37° C. until a day on which the cells were infected.
(2) A HBV (genotype CAT) prepared by transfecting an HBV plasmid into an HepG2 cell was suspended in the medium containing 4% PEG-8000, and added to the plate of (1) at about 30 copies/cell such that the PXB cells were infected (100 μL/well), and the plate was incubated in a 5% CO2 incubator at 37° C. for 1 day.
(3) The culture supernatant on day 1 post infection was removed and the cells were washed three times with DMEM containing 10% FBS and 1% penicillin/streptomycin. Then, the medium was added to the plate (100 μL/well) and the plate was incubated in a 5% CO2 incubator at 37° C. for 1 day.
(4) The culture supernatant on day 2 post infection was removed and the cells were washed three times with DMEM containing 10% FBS and 1% penicillin/streptomycin. Then, the medium was added to the plate (100 μL/well) and the plate was incubated in a 5% CO2 incubator at 37° C. for 5 days.
(5) The culture supernatant on day 7 post infection was removed, the medium was added to the plate (100 μL/well), and the plate was incubated in a 5% CO2 incubator at 37° C. for 5 days.
(6) The culture supernatant on day 12 post infection was removed, the medium was added to the plate (100 μL/well), and the plate was incubated in a 5% CO2 incubator at 37° C. for 5 days.
(§2) (7) The culture supernatant on day 17 post infection was removed, the test solution was added to the plate (100 μL/well), and the plate was incubated in a 5% CO2 incubator at 37° C. for 5 days. As a control without the compound added, the medium was added to the plate (100 μL/well) and the plate was incubated in a 5% CO2 incubator at 37° C. for 5 days.
as §2, with “(8)” for “(7)”, “22” for “17”
as §2, with “(9)” for “(7)”, “27” for “17”
(10) The culture supernatant on day 32 post infection was collected.
(11) The collected culture supernatant on day 32 post infection was treated with a mixture of Buffer AL (manufactured by QIAGEN) and Proteinase K (manufactured by Invitrogen). The amount of HBV-DNA in the obtained solution was absolutely quantified by a real-time PCR method. In addition, the amount of HBsAg in the culture supernatant was absolutely quantified by chemiluminescent enzyme immunoassay using Lumipulse (registered trademark) HBsAg-HQ (manufactured by Fujirebio Inc.). A relative viral load (%) with respect to a control without the compound added was each calculated. […]

HBV = experiment: Test Example 1-2: anti-HBV assay in HepG2.2.15 cells (test solution 100 μL/well); assay type: cell-based, hepatitis B virus; conditions: Hepatitis B virus, culture supernatant
Description: Using HepG2.2.15 cells (Proc. Natl. Acad. Sci. USA, 84, 1005-1009, 1987) which have an HBV genome introduced into a hepatoblastoma cell line, HepG2, and persistently produce a virus, the anti-HBV activity of the representative compounds was evaluated in the following procedure.
as §1
DMEM/F-12, GlutaMAX (manufactured by Invitrogen)+5 μg/mL insulin (manufactured by Wako)+1% penicillin/streptomycin (manufactured by Sigma)+10 mmol/L HEPES (manufactured by Sigma)+50 μmol/L hydrocortisone (manufactured by Sigma)+10% FBS
A mixture of a test compound with dimethyl sulfoxide (DMSO) was further added to the medium to obtain a final concentration of DMSO of 0.25% (v/v), and thus, test solutions containing the test compound at various concentrations were prepared. In addition, a test solution obtained by adding DMSO alone to the medium to obtain a final concentration of 0.25% (v/v) was prepared as a control without addition of a drug.
(1) The HepG2.2.15 cells were suspended in the medium to prepare a. HepG2.2.15 cell suspension at 4×10^5 cells/mL. The suspension was seeded in a 96-well microtiter plate (100 μL/well) and the plate was incubated in a 5% CO2 incubator at 37° C. for 2 days.
(2) The culture supernatant was removed and the cells were washed twice with PBS (−) (100 μL/well).
(3) The test solution (200 μL/well) was added to the plate of (2) and the plate was incubated in a 5% CO2 incubator at 37° C. for 4 days.
(4) The culture supernatant was removed, the test solution (200 μL/well) was added again to the plate, and the plate was incubated in a 5% CO2 incubator at 37° C. for 3 days.
(5) The culture supernatant was collected and treated with a mixture of Buffer AL (manufactured by QIAGEN) and Proteinase K (manufactured by Invitrogen). The amount of DNA of HBV (HBV-DNA) in the obtained solution was absolutely quantified by a real-time PCR method. In addition, HBsAg (hepatitis B surface antigen) in the culture supernatant was absolutely quantified by chemiluminescent enzyme immunoassay using Lumipulse (registered trademark) HBsAg-HQ (manufactured by Fujirebio Inc.). The relative viral load (%) of a well with the compound added to a well without the compound added was calculated. An IC50 of the compound was calculated using a FORECAST function (linear regression method) of Microsoft Office Excel 2007 by plotting the logarithm of the concentration against the relative viral load as a real number.
The IC50 of HBV-DNA was defined as a concentration (or a logarithm dilution of the culture supernatant) of the compound, in which the amount of HBV-DNA is reduced by 50% as compared a control without the compound added.
In addition, the IC50 of HBsAg was defined as a concentration (or a logarithm dilution of the culture supernatant) of the compound, in which the amount of HBsAg is reduced by 50% as compared a control without the compound added.
The test was performed by the same method as in Test Example 1-1 except that the amounts of the test solutions of (3) and (4) of Test Example 1-1 was changed to 100 μL/well.

[1] = read-out: IC50 HBV-DNA, PXB-cells infected with HBV genotype CAT, culture supernatant on day 32 post infection
[2] = read-out: IC50 HBsAg, PXB-cells infected with HBV genotype CAT, culture supernatant on day 32 post infection

`CN(C)[C@H]1CCN(c2nc3ccc(-n4cc(C(=O)O)c(=O)cc4-c4ccc(N5CCCC5)cc4)cc3s2)C1` [Example 17-1, (S)-1-(2-(3-(dimethylamino)pyrrolidin-1-yl)benzo[d]thiazol-6-yl)-4-oxo-6-(4-(pyrrolidin-1-yl)phenyl)-1,4-dihydropyridine-3-carboxylic acid] showed an IC50 (HBV (genotype CAT); [1]) of under 500 nM and an IC50 (HBV (genotype CAT); [2]) of under 500 nM.

In the case of `CO[C@@H]1CCN(c2ccc(-c3cc(=O)c(C(=O)O)cn3-c3ccc4nc(N5CCOCC5)sc4c3)cc2F)C1` [Example 20-1, (R)-6-(3-fluoro-4-(3-methoxypyrrolidin-1-yl)phenyl)-1-(2-morpholinobenzo[d]thiazol-6-yl)-4-oxo-1,4-dihydropyridine-3-carboxylic acid], the IC50 (HBV (genotype CAT); [1]) is reported as under 500 nM and the IC50 (HBV (genotype CAT); [2]) is reported as under 500 nM.

`CN(C)[C@@H]1CCN(c2nc3ccc(-n4cc(C(=O)O)c(=O)cc4-c4ccc(N5CCCC5)cc4)cc3s2)C1` [Example 17-2, (R)-1-(2-(3-(dimethylamino)pyrrolidin-1-yl)benzo[d]thiazol-6-yl)-4-oxo-6-(4-(pyrrolidin-1-yl)phenyl)-1,4-dihydropyridine-3-carboxylic acid] showed an IC50 (HBV (genotype CAT); [1]) of under 500 nM and an IC50 (HBV (genotype CAT); [2]) of under 500 nM.

Molecule `COC1CN(c2nc3ccc(-n4cc(C(=O)O)c(=O)cc4-c4ccc5c(c4)OC[C@@H]4CCCN54)cc3s2)C1` [Example 18-2, (S)-1-(2-(3-methoxyazetidin-1-yl)benzo[d]thiazol-6-yl)-4-oxo-6-(2,3,3a,4-tetrahydro-1H-benzo[b]pyrrolo[1,2-d][1,4]oxazin-7-yl)-1,4-dihydropyridine-3-carboxylic acid] has an IC50 (HBV (genotype CAT); [1]) of under 500 nM and an IC50 (HBV (genotype CAT); [2]) of under 500 nM.

With `COCCO[C@@H]1CCN(c2ccc(-c3cc(=O)c(C(=O)O)cn3-c3ccc4nc(N5CCOCC5)sc4c3)cc2)C1` [Example 19-1, (R)-6-(4-(3-(2-methoxyethoxy)pyrrolidin-1-yl)phenyl)-1-(2-morpholinobenzo[d]thiazol-6-yl)-4-oxo-1,4-dihydropyridine-3-carboxylic acid] the IC50 (HBV (genotype CAT); [1]) was under 500 nM and the IC50 (HBV (genotype CAT); [2]) was under 500 nM.

Molecule `CO[C@@H]1CCN(c2ccc(-c3cc(=O)c(C(=O)O)cn3-c3ccc4nc(N5CC(OC(F)F)C5)sc4c3)cc2F)C1` [Example 23-2, (R)-1-(2-(3-(difluoromethoxy)azetidin-1-yl)benzo[d]thiazol-6-yl)-6-(3-fluoro-4-(3-methoxypyrrolidin-1-yl)phenyl)-4-oxo-1,4-dihydropyridine-3-carboxylic acid] has an IC50 (HBV; read-out: IC50 HBV-DNA) of 0.96 nM and an IC50 (HBV; read-out: IC50 HBsAg) of 2.8 nM.

In the case of `CO[C@H]1CCN(c2nc3ccc(-n4cc(C(=O)O)c(=O)cc4-c4ccc(N5CCCC5)cc4)cc3s2)C1` [Example 17-3, (S)-1-(2-(3-methoxypyrrolidin-1-yl)benzo[d]thiazol-6-yl)-4-oxo-6-(4-(pyrrolidin-1-yl)phenyl)-1,4-dihydropyridine-3-carboxylic acid], the IC50 (HBV (genotype CAT); [1]) is reported as under 500 nM and the IC50 (HBV (genotype CAT); [2]) is reported as under 500 nM.

`CO[C@@H]1CCN(c2ccc(-c3cc(=O)c(C(=O)O)cn3-c3ccc4nc(N5CC(C)(OC)C5)sc4c3)cc2F)C1` [Example 23-8, (R)-6-(3-fluoro-4-(3-methoxypyrrolidin-1-yl)phenyl)-1-(2-(3-methoxy-3-methylazetidin-1-yl)benzo[d]thiazol-6-yl)-4-oxo-1,4-dihydropyridine-3-carboxylic acid] was tested, and the IC50 (HBV; read-out: IC50 HBV-DNA) was 0.89 nM and the IC50 (HBV; read-out: IC50 HBsAg) was 1.4 nM.

Molecule `COCCO[C@@H]1CCN(c2ccc(-c3cc(=O)c(C(=O)O)cn3-c3ccc4nc(N5CC[C@H](OC)C5)sc4c3)cc2)C1` [Example 21, 6-(4-((R)-3-(2-Methoxyethoxy)pyrrolidin-1-yl)phenyl)-1-(2-((S)-3-methoxypyrrolidin-1-yl)benzo[d]thiazol-6-yl)-4-oxo-1,4-dihydropyridine-3-carboxylic acid] has an IC50 (HBV; read-out: IC50 HBV-DNA) of 8.3 nM and an IC50 (HBV; read-out: IC50 HBsAg) of 17 nM.
